Assay results: PubChem BioAssay (NCI)
Values joined by “and” are separate entries in the source; they are usually repeats but may differ in a detail not shown here. Equal values may be shown once.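 Values below derive from 48-hour exposures of cells grown in 96-well plates, with endpoints linearly interpolated between the two concentrations bracketing the appropriate inhibition level. Abbreviation: GI50, concentration required for 50% inhibition of growth. TGI: concentration producing complete growth inhibition.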

Assays:
Assay in all cases: NCI-60 cell line screen, 48 h
RXF 393 renal = system: RXF 393 renal
NCI-H23 lung = system: NCI-H23 lung
786-0 renal = system: 786-0 renal
HCC-2998 colon = system: HCC-2998 colon
M14 melanoma = system: M14 melanoma
SN12C renal = system: SN12C renal
BT-549 breast = system: BT-549 breast
SW-620 colon = system: SW-620 colon
IGROV1 ovarian = system: IGROV1 ovarian
DU-145 prostate = system: DU-145 prostate
MDA-MB-435 = system: MDA-MB-435

SMILES	TGI (RXF 393 renal) [µM]	TGI (NCI-H23 lung)	TGI (786-0 renal) [µM]	TGI (HCC-2998 colon) [µM]	TGI (M14 melanoma) [µM]	TGI (SN12C renal) [µM]	TGI (BT-549 breast) [µM]	TGI (SW-620 colon) [µM]	TGI (IGROV1 ovarian) [µM]	TGI (DU-145 prostate) [µM]	TGI (MDA-MB-435) [µM]	GI50 (NCI-H23 lung)	GI50 (HCC-2998 colon)	GI50 (IGROV1 ovarian) [µM]
CC(=O)Oc1ccc(OC(Oc2ccccc2)c2ccccc2)cc1 (stereo not drawn)	57.1	47.6 µM	57.8	39.7	32.1	29.2	68	> 100	> 100	> 100	94.3	–	–	–
Clc1ccc(OCC2NC3C=CC32)cn1 (stereo not drawn)	> 100	> 100 µM	> 100	> 100	> 100	> 100	> 100	> 100	> 100	> 100	> 100	–	–	–
C1OCN2c3nonc3N3COCN4c5nonc5N1C2C43 (stereo not drawn)	> 100	> 100 µM	> 100	> 100	> 100	> 100	> 100	> 100	> 100	> 100	> 100	–	–	–
O=c1c2c([nH]c3cc4c(cc13)OCO4)-c1ccccc1CCC2	> 50	> 50 µM	> 50	> 50	> 50	> 50	> 50	> 50	> 50	> 50	> 50	–	–	–
COc1cc2c3c(cc(Cl)nc3c1OC)C(O)(CC(C)=O)C(=O)N2 (stereo not drawn)	30.7	> 60.8 µM	30.9	> 60.5	36.5	36.1	30.8	> 71	36.6	> 53.6	30.9	–	–	–
CC(=O)O[C@H]1CC[C@@]2(C)C(=CC[C@@H]3[C@@H]2CC[C@]2(C)c4nc(N)c(C#N)cc4C[C@@H]32)C1	49	> 100 µM	> 96	> 100	> 100	> 100	> 63.7	> 100	> 100	> 100	> 100	–	–	–
c1ccc(C(CCN2CCCC2)c2ccccn2)cc1 (stereo not drawn)	> 100	> 100 µM	> 100	> 100	> 100	> 100	> 100	> 100	> 100	> 100	> 100	–	–	–
O=C(CCc1cc(O)cc(O)c1)NCCc1ccc(O)c(O)c1	> 100	> 100 µM	> 100	> 100	> 100	> 100	> 100	> 100	> 100	> 100	52.8	–	–	–
O=c1c2cc(-c3ccccc3)cnc2sn1-c1ccc([N+](=O)[O-])cc1	82.1	> 100 µM	> 100	> 100	> 100	> 100	> 100	> 100	> 100	> 100	> 100	–	–	–
Cc1ccc(S(=O)(=O)n2cc(-c3cnc(N)c(Br)n3)c3ccccc32)cc1	5.23	5.94 µM	> 23.3	> 100	> 55.1	11.9	> 100	> 100	5.71	6.68	0.588	–	–	–
CC(=O)NC1C(OCc2ccccc2)OC(CO)C(O)C1OCC(=O)NC(C)C(=O)NC(CCC(=O)NCCCCCC(=O)Nc1ccc2c(c1)CN1C(=O)c3ccccc3C1=N2)C(N)=O (stereo not drawn)	> 100	> 100 µM	> 100	> 100	> 100	> 100	> 100	> 100	> 100	> 100	> 100	–	–	–
C/C=C/C=C/C1=NN(c2cccc(S(=O)(=O)O)c2)C2(C1)SCC(=O)N2c1nc2ccccc2s1 (stereo not drawn)	> 100	> 100 µM	42.3	> 100	> 100	> 100	> 100	> 100	> 100	> 100	> 100	–	–	–
C=C1c2nc3ccccc3n2C=C(c2ccc(Cl)cc2)N1c1ccccc1	49.5	23.9 µM	26	26	36.4	> 100	18.8	> 100	22.1	> 100	> 100	–	–	–
COc1ccc2[nH]c(C(=O)N3CC(CCl)c4ccc([N+](=O)[O-])cc43)cc2c1 (stereo not drawn)	> 100	> 100 µM	> 100	> 100	> 100	> 100	> 100	> 100	> 100	> 100	> 100	–	–	–
Cc1cc(=O)c2c(O)c3c(O)cc(O)c4c5c(O)cc(O)c6c(O)c7c(=O)cc(C)c8c1c2c(c34)c(c65)c78	88.8	> 100 µM and 60.2 µM	> 100	> 100	> 100	> 100	> 100	> 100	> 100	> 100	> 100	> 100 µM and 23 µM	> 100 µM and 28.3 µM	> 100
